Patent publication US20040106148A1, “Polypeptides” (priority 2000, published 2004)

Biological target: mouse centaurin-β2 PH domain (residues 266 to 390), GST fusion (Mus musculus, UniProt Q6ZQK5)
Assay: Protein-lipid overlay
Format: binding
Settings: FIG. 2
Description: FIG. 2. Phosphoinositide binding properties of the novel PH domains. The ability of the indicated GST fusion proteins to bind a variety of phosphoinositides was analysed using a protein-lipid overlay. Serial dilutions of the indicated phosphoinositides (100 pmol, 50 pmol, 25 pmol, 12.5 pmol, 6.3 pmol, 3.1 pmol and 1.6 pmol) were spotted onto a nitrocellulose membranes which were then incubated with the purified GST fusion proteins. The membranes were washed and the GST-fusion proteins bound to the membrane by virtue of their interaction with lipid were detected using a GST antibody. A representative of at least 3 separate experiments carried out is shown.
Cloning of PH domains and preparation of expression constructs. All the human and mouse EST's were obtained from the I.M.A.G.E. Consortium and sequenced. The plant EST (accession number T04439) encoding a full length clone of AtPH1 was obtained from the Arabidopsis Biological Research. Centre (Ohio University). The sequence of each EST was verified and the full length PH domain of each EST was amplified by PCR using the Hi-fidelity PCR system with primers designed to incorporate a Kozak site, an initiating ATG codon followed by a myc epitope tag and a stop codon after the PH domain. […]

mouse centaurin-β2 PH domain (residues 266 to 390), GST fusion, sequence (Q6ZQK5 266-390): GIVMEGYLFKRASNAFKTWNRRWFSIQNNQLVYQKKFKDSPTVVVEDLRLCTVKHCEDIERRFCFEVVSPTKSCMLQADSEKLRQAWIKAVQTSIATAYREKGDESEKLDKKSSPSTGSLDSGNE

CCCCCCCCCCCCCCCC(=O)OC[C@H](COP(=O)(O)O[C@@H]1[C@H](O)[C@H](OP(=O)(O)O)[C@@H](O)[C@H](OP(=O)(O)O)[C@H]1O)OC(=O)CCCCCCCCCCCCCCC [PtdIns(3,5)P2]
phosphoinositide binding: moderate affinity
